Measurements as given in patent US4898858A, “Cephalosporin derivatives and antibiotics containing the same” (Meiji Seika Kaisha Ltd., priority 1985, dated 1990).
Values after ≈ are worked out from the molar mass of the structure shown. Read-outs that look alike come from different tables or passages of the source.

How the values were obtained:
[1] = tested on: Staphylococcus aureus 606; assay: minimum growth-inhibitory concentration (MIC) in vitro; type: cell-based
[2] = tested on: Staphylococcus aureus 606 E-25; assay: as above; type: cell-based; conditions: 606E25
[3] = tested on: Staphylococcus aureus 209P JC-1; assay: as above; type: cell-based
[4] = tested on: Streptocuccus faecalis W-75; assay: as above; type: cell-based
Escherichia coli ML1410 = assay: as above; type: cell-based
[5] = tested on: Escherichia coli NIHJ JC-2; assay: as above; type: cell-based
Escherichia coli No.29 = assay: as above; type: cell-based
[6] = tested on: Klebsiella pneumoniae GN-69; assay: as above; type: cell-based
[7] = tested on: Klebsiella pneumoniae GN-118; assay: as above; type: cell-based; conditions: GN118
[8] = tested on: Salmonella typhimurium LT-2; assay: as above; type: cell-based; conditions: Salmonella enterica
[9] = tested on: Salmonella enteritidis No.11; assay: as above; type: cell-based; conditions: Salmonella enterica
Proteus vulgais GN-76 = assay: as above; type: cell-based
Proteus morganii 1510 = assay: as above; type: cell-based; conditions: Morganella morganii
Proteus rettgeri GN-624 = assay: as above; type: cell-based; conditions: Providencia rettgeri, GN624
Proteus rettgeri J-0026 = assay: as above; type: cell-based; conditions: Providencia rettgeri, J0026
[10] = tested on: Enterobacter Cloacae G-0005; assay: as above; type: cell-based
[11] = tested on: Enterobacter Cloacae G-0008; assay: as above; type: cell-based
[12] = tested on: Serratia marcescens GN-10857; assay: as above; type: cell-based; conditions: GN10857
[13] = tested on: Serratia marcescens GN-629; assay: as above; type: cell-based; conditions: GN629
[14] = tested on: Pseudomonas aeruginosa GN-10362; assay: as above; type: cell-based; conditions: GN10362
[15] = tested on: Pseudomonas aeruginosa MB-3833; assay: as above; type: cell-based; conditions: MB3833
[16] = tested on: Pseudomonas aeruginosa E-2; assay: as above; type: cell-based; conditions: E2
[17] = tested on: Proteus vulgais GN-76/C-1; assay: as above; conditions: for MIC: Proteus vulgaris, GN76, read-out: MIC-value
Pseudomonas aeniginosa = assay: MIC, comparison of the compounds of the present invention and the relevant compounds; type: cell-based; conditions: Table 2, strain not given, by substituent B
[18] = NIHJJC2, Escherichia coli NIHJ JC-2, in vitro, read-out: MIC-value
[19] = GN69, Klebsiella pneumoniae GN-69, in vitro, read-out: MIC-value

Row | Compound | MIC [1] [µg/mL] | MIC [2] [µg/mL] | MIC [3] [µg/mL] | MIC [4] [µg/mL] | MIC (Escherichia coli ML1410) [µg/mL] | MIC (Escherichia coli No.29) [µg/mL] | MIC [7] [µg/mL] | MIC [8] [µg/mL] | MIC [9] [µg/mL] | MIC (Proteus vulgais GN-76) [µg/mL] | MIC (Proteus morganii 1510) [µg/mL] | MIC (Proteus rettgeri GN-624) [µg/mL] | MIC (Proteus rettgeri J-0026) [µg/mL] | MIC [10] [µg/mL] | MIC [11] [µg/mL] | MIC [12] [µg/mL] | MIC [13] [µg/mL] | MIC [15] [µg/mL] | MIC [16] [µg/mL] | MIC [17] [µg/mL] | other results
1 | Nc1nc(/C(=N/OC(CF)C(=O)O)C(=O)N[C@@H]2C(=O)N3C(C(=O)[O-])=C(CSc4cc[n+](CCF)cc4)CS[C@H]23)cs1 (stereo partly shown) [Example 6] | 3.13 (≈ 4.98 µM) | 3.13 (≈ 4.98 µM) | 1.56 (≈ 2.48 µM) | 3.13 (≈ 4.98 µM) | 0.1 (≈ 0.159 µM) | 0.1 (≈ 0.159 µM) | < 0.025 | < 0.025 | 0.05 (≈ 0.0795 µM) | 0.05 (≈ 0.0795 µM) | 0.78 (≈ 1.24 µM) | < 0.025 | 0.2 (≈ 0.318 µM) | 0.05 (≈ 0.0795 µM) | 0.1 (≈ 0.159 µM) | 1.56 (≈ 2.48 µM) | 0.2 (≈ 0.318 µM) | 1.56 (≈ 2.48 µM) | 1.56 (≈ 2.48 µM) | 0.1 (≈ 0.159 µM) | MIC ([5]; Escherichia coli, NIHJJC2, read-out: MIC-value): 0.05 µg/mL (≈ 0.0795 µM); MIC ([6]; Klebsiella pneumoniae, GN69, read-out: MIC-value): < 0.025 µg/mL; MIC [14]: 3.13 µg/mL (≈ 4.98 µM)
2 | C[C@H](O/N=C(\C(=O)N[C@@H]1C(=O)N2C(C(=O)[O-])=C(CSc3cc[n+](C)cc3)CS[C@H]12)c1csc(N)n1)C(=O)O [Example 7, (6R,7R)-7-[(Z)-2-(2-Aminothiazol-4-yl)-2-{(1S)-carboxyethoxyimino}acetamid]-3-(1-methylpyridinium-4-ylthiomethyl)-ceph-3-em-4-carboxylate] | 3.13 (≈ 5.41 µM) | 3.13 (≈ 5.41 µM) | 1.56 (≈ 2.7 µM) | 1.56 (≈ 2.7 µM) | 0.1 (≈ 0.173 µM) | 0.1 (≈ 0.173 µM) | < 0.025 | < 0.025 | < 0.025 | 0.025 (≈ 0.0432 µM) | 1.56 (≈ 2.7 µM) | < 0.025 | 0.1 (≈ 0.173 µM) | 0.05 (≈ 0.0864 µM) | 0.1 (≈ 0.173 µM) | 0.39 (≈ 0.674 µM) | 0.1 (≈ 0.173 µM) | 0.78 (≈ 1.35 µM) | 0.78 (≈ 1.35 µM) | 0.05 (≈ 0.0864 µM) | MIC [5, 18]: 0.1 µg/mL (≈ 0.173 µM); MIC [6, 19]: < 0.025 µg/mL; MIC [14]: 0.78 µg/mL (≈ 1.35 µM)
3 | C[C@H](O/N=C(\C(=O)N[C@@H]1C(=O)N2C(C(=O)[O-])=C(CSc3cc[n+](C)cc3)CS[C@H]12)c1csc(N)n1)C(=O)O [drawing 15] | – | – | – | – | – | – | – | – | – | – | – | – | – | – | – | – | – | – | – | – | MIC (Pseudomonas aeniginosa): 0.78 µg/mL (≈ 1.35 µM); MIC-value ([17]; Table 2, Proteus vulgaris GN76/C-1, by substituent B): 0.05 µg/mL (≈ 0.0864 µM)

Now from value to molecule, other results behind:

Row | MIC [1] [µg/mL] | MIC [2] [µg/mL] | MIC [3] [µg/mL] | MIC [4] [µg/mL] | MIC (Escherichia coli ML1410) [µg/mL] | MIC (Escherichia coli No.29) [µg/mL] | MIC [7] [µg/mL] | MIC [8] [µg/mL] | MIC [9] [µg/mL] | MIC (Proteus vulgais GN-76) [µg/mL] | MIC (Proteus morganii 1510) [µg/mL] | MIC (Proteus rettgeri GN-624) [µg/mL] | MIC (Proteus rettgeri J-0026) [µg/mL] | MIC [10] [µg/mL] | MIC [11] [µg/mL] | MIC [12] [µg/mL] | MIC [13] [µg/mL] | MIC [15] [µg/mL] | MIC [16] [µg/mL] | MIC [17] [µg/mL] | Compound | other results
4 | 1.56 (≈ 2.63 µM) | 3.13 (≈ 5.28 µM) | – | 0.78 (≈ 1.32 µM) | 0.1 (≈ 0.169 µM) | – | < 0.025 | < 0.025 | < 0.025 | 0.025 (≈ 0.0422 µM) | 0.78 (≈ 1.32 µM) | 0.05 (≈ 0.0844 µM) | 0.05 (≈ 0.0844 µM) | 0.05 (≈ 0.0844 µM) | 0.05 (≈ 0.0844 µM) | 0.39 (≈ 0.658 µM) | 0.1 (≈ 0.169 µM) | 0.78 (≈ 1.32 µM) | 0.78 (≈ 1.32 µM) | 0.05 (≈ 0.0844 µM) | CC[n+]1ccc(SCC2=C(C(=O)[O-])N3C(=O)[C@@H](NC(=O)/C(=N\O[C@@H](C)C(=O)O)c4csc(N)n4)[C@H]3SC2)cc1 [Example 8] | MIC [5, 18]: 0.1 µg/mL (≈ 0.169 µM); MIC [6, 19]: < 0.025 µg/mL
5 | 6.25 (≈ 10.5 µM) | 6.25 (≈ 10.5 µM) | 3.13 (≈ 5.28 µM) | 6.25 (≈ 10.5 µM) | 0.1 (≈ 0.169 µM) | 0.1 (≈ 0.169 µM) | 0.05 (≈ 0.0844 µM) | 0.05 (≈ 0.0844 µM) | < 0.025 | 0.1 (≈ 0.169 µM) | 0.78 (≈ 1.32 µM) | < 0.025 | 0.2 (≈ 0.337 µM) | 0.2 (≈ 0.337 µM) | 0.1 (≈ 0.169 µM) | 1.56 (≈ 2.63 µM) | 0.39 (≈ 0.658 µM) | 3.13 (≈ 5.28 µM) | 1.56 (≈ 2.63 µM) | 0.1 (≈ 0.169 µM) | CC[n+]1ccc(SCC2=C(C(=O)[O-])N3C(=O)[C@@H](NC(=O)/C(=N\O[C@H](C)C(=O)O)c4csc(N)n4)[C@H]3SC2)cc1 [Example 9, (6R,7R)-7-[(Z)-2-(2-Aminothiazol-4-yl)-2-{(1R)-carboxyethoxyimino}acetamid]-3-(1-ethylpyridinium-4-ylthiomethyl)-ceph-3-em-4-carboxylate] | MIC [5, 18]: 0.1 µg/mL (≈ 0.169 µM); MIC [6, 19]: 0.05 µg/mL (≈ 0.0844 µM); MIC [14]: 3.13 µg/mL (≈ 5.28 µM)
